From patent US20220144775A1, “HYDRAZIDE COMPOUND AND KINASE INHIBITOR” (NISSAN CHEMICAL CORPORATION, priority 2019, published 2022)

Experiments:
LATS1 = biological target: T1, LATS1 (Homo sapiens, UniProt O95835); experiment: Kinase inhibitory activity against LATS1 (ADP quantification); type: biochemical; conditions: ATP 400 μM, read-out: kinase inhibitory rate; for inhibition at 0.1 µM: final concentration 100 nM; for inhibition at 1 µM: final concentration 1000 nM
T1 construct: purchased Carna Biosciences
T1 sequence (O95835 1-1130): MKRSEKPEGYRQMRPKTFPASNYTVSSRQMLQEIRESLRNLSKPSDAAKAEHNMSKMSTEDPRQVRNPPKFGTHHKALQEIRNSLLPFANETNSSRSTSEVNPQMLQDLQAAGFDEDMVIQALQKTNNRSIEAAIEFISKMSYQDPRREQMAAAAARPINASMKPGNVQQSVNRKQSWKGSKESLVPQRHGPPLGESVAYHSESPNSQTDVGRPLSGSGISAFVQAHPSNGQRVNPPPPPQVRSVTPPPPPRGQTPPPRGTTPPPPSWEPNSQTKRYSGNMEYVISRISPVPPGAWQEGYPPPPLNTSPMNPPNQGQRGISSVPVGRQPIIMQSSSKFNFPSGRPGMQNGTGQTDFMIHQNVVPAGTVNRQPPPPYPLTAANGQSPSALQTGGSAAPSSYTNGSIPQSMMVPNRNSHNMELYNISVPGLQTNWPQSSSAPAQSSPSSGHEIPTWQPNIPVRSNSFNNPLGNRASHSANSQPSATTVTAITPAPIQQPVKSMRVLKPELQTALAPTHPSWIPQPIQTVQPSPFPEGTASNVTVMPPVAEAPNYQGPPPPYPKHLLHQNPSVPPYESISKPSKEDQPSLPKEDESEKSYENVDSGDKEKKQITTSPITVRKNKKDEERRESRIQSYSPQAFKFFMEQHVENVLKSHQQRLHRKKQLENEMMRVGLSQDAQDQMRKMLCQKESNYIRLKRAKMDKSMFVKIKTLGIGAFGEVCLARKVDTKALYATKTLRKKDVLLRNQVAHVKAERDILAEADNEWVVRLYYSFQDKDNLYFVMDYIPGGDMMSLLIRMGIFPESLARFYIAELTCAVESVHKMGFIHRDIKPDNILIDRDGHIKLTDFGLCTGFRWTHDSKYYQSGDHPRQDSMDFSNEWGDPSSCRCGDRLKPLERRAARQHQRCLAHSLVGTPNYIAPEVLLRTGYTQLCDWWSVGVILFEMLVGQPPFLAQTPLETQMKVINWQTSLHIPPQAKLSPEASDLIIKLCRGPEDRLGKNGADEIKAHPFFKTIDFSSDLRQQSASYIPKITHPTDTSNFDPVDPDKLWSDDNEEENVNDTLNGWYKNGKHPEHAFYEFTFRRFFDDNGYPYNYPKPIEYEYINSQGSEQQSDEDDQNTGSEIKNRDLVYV
Experimental: (§1) Evaluation of the inhibitory activity (calculation of kinase inhibitory rate) of the compound of the present invention against LATS1 and LATS2 (manufactured by Carna Biosciences) was performed. The activity was measured using the Kinase Assay method described below. The test concentration of the compound of the present invention was set such that the final concentration was 100 nM or 1000 nM.
(§2) As the analysis method of the data, the mean signal of the control well containing reaction components other than the compound of the present invention was set to 0% inhibition, the mean signal without enzyme addition was set to 100% inhibition, and the inhibition rate was calculated from the mean signal of 2 wells of each compound.
(§3) 2 μL of a compound of the present invention solution at 2.5-fold concentration, 1 μL of substrate at 5-fold concentration (SGKtide: NH2-CKKRNRRLSVA-COOH, manufactured by SignalChem), ATP (manufactured by Sigma-Aldrich), MgCl2 (manufactured by FUJIFILM Wako Pure Chemical Corporation) solution (final concentration 10 μM, 400 μM and 5 mM, respectively), and 2 μL of kinase solution at 2.5-fold concentration (final concentration of LATS1 or LATS2 5 μg/mL), each prepared with assay buffer (20 mM HEPES, 0.01% Triton X-100, 2 mM DTT, 50 μg/mL BSA, pH 7.5), were mixed in the wells of a polypropylene 384-well plate (manufactured by Greiner Bio-One, #784900) and reacted at room temperature for 5 hr. To the solution was added 5 μL detection solution [Fluorospark (registered trade mark) Kinase/ADP Multi-Assay Kit; manufactured by FUJIFILM Wako Pure Chemical Corporation], and the mixture was reacted at room temperature for 30 min. Successively, 5 μL of a reaction quenching liquid [Fluorospark (registered trade mark) Kinase/ADP Multi-Assay Kit; manufactured by FUJIFILM Wako Pure Chemical Corporation] was added to discontinue the reaction. Thereafter, the ADP concentration of the reaction solution was quantified by EnSpire (manufactured by PerkinElmer) to detect the kinase reaction.

LATS2 = biological target: T2, LATS2 (Homo sapiens, UniProt Q9NRM7); experiment: Kinase inhibitory activity against LATS2 (ADP quantification); type: biochemical; conditions: ATP 400 μM, read-out: kinase inhibitory rate; for inhibition at 0.1 µM: final concentration 100 nM; for inhibition at 1 µM: final concentration 1000 nM
T2 construct: purchased Carna Biosciences
T2 sequence (Q9NRM7 1-1088): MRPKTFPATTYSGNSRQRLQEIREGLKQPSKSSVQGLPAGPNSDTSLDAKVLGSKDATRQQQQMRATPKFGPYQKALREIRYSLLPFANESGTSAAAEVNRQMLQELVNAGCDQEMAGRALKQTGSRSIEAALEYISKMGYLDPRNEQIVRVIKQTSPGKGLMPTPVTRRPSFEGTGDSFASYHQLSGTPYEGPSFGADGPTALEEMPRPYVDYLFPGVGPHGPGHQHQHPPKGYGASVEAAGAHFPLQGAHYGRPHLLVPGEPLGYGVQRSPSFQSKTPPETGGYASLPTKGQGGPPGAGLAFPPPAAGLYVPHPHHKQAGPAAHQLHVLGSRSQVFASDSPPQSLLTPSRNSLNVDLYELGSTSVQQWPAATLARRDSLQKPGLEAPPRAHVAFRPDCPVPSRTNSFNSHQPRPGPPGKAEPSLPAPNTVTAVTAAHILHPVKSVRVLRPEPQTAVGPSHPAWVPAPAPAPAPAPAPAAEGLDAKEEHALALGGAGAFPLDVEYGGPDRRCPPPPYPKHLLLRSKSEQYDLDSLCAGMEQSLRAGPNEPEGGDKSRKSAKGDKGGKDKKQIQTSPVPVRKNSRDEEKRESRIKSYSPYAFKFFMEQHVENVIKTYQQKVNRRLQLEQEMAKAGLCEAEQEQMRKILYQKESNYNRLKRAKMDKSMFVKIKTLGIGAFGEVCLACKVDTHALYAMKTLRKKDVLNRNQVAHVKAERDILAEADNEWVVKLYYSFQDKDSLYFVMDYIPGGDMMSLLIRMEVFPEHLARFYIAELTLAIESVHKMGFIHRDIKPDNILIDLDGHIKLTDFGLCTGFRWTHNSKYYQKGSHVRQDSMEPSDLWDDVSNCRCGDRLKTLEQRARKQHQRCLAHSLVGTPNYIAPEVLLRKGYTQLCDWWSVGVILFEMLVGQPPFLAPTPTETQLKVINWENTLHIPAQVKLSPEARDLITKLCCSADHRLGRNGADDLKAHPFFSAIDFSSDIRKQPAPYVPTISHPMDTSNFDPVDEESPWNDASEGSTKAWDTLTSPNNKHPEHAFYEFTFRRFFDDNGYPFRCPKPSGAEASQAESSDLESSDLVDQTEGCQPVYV
Experimental: as §1, §2, §3

YAP = YAP phosphorylation inhibitory action in SKOV3 (HTRF); type: cell-based, human; conditions: 10 μM, 1 hr, non-treatment 100%
Experimental: Human ovarian cancer cell line SKOV3 (manufactured by DS Pharma Biomedical Co., Ltd.) was precultured using a 15% FBS-containing McCoy's 5a medium (manufactured by Sigma-Aldrich) (single layer culture). The above-mentioned cells in the logarithmic growth phase were washed with PBS. A 0.25% (w/v) trypsin-1 mmol/L ethylenediaminetetraacetic acid (EDTA) solution (manufactured by FUJIFILM Wako Pure Chemical Corporation) was added and the adherent cells were incubated at 37° C. for 3 min and detached. The above-mentioned medium was added, and the cells were centrifuged and resuspended in the same medium.
According to the method of patent document 1 (WO 2014/017513), a composition of 10% FBS-containing DMEM medium (Phenol-red free, manufactured by FUJIFILM Wako Pure Chemical Corporation) containing 0.015% (w/v) deacylated gellan gum (KELCOGEL CG-LA, manufactured by SANSHO Co., Ltd.) was prepared using FCeM-series Preparation Kit (manufactured by FUJIFILM Wako Pure Chemical Corporation). Then, various cells prepared above were suspended in the above-mentioned medium composition (3D culture conditions) added with deacylated gellan gum or a medium without the addition (2D culture conditions), and seeded on a 50 μL/well (manufactured by Corning Incorporated, a 96 well flat bottom plate, #3585, 2D culture conditions) or 25 μL/well (manufactured by Corning Incorporated, 96 well low adhesion flat bottom plate, #3474) at 100000 cells/well. The plate was allowed to stand at 37° C. in a 5% CO2 incubator, and the compound of the present invention diluted with the medium at 2 or 6 times the final concentration, DMSO, or the medium alone was added to the plate 3 hr after the seeding at 50 μL/well (2D culture conditions) or 5 μL/well (3D culture conditions) to make the final concentration of each compound 10 μM. After culture at 37° C. in a 5% CO2 incubator for 1 hr, the supernatant was aspirated, supplemented Lysis buffer (1-fold concentration, manufactured by Cisbio, YAP-total kit or YAP phospho-S27 kit) (50 μL) was added under 2D culture conditions, and supplemented Lysys buffer (4-fold concentration) (10 μL) was added to the culture supernatant under 3D conditions, and the mixture was stirred by a plate shaker for 30 min. Thereafter, the plate was centrifuged, 16 μL of the supernatant was transferred to a 384-well white plate (Corning, #4512), and each antibody solution (pYAP d2 antibody or Total-YAP d2 antibody, and pYAP Cryptate antibody or Total-YAP Cryptate antibody) included in the kit was added at 4 μL/well in total, and the mixture was allowed to stand at room temperature overnight. As a blank control, pYAP Cryptate antibody or Total-YAP Cryptate antibody alone was added to cells free of stimulation with compound and the mixture was treated in the same manner. The next day, the wavelengths at 665 nm and 615′ nm were measured in the HTRF mode of EnVision (manufactured by PerkinElmer).
The obtained signal was calculated as follows. Ratio=signal (665 nm)/signal (615 nm)×10000, ΔR=Signal(Ratio)−Background fluorescence, and the relative phosphorylated YAP amount or total YAP amount for each compound when ΔR of the compound non-addition group (non-treatment) is 100% is shown in Tables 7 and 8 (2D culture), and Tables 9 and 10 (3D culture). From the results, it was shown that the compound of the present zo invention has a YAP phosphorylation inhibitory action under both 2D and 3D culture conditions.

Row | inhibition at 0.1 µM (LATS1) [%] | inhibition at 1 µM (LATS1) [%] | inhibition at 0.1 µM (LATS2) [%] | inhibition at 1 µM (LATS2) [%] | SMILES | phosphorylated YAP amount (%) (YAP; 2D culture conditions) | total YAP amount (%) (YAP; 2D culture conditions) | phosphorylated YAP amount (%) (YAP; 3D culture conditions) | total YAP amount (%) (YAP; 3D culture conditions)
1 | ≥ 40 | ≥ 40 | ≥ 40 | ≥ 40 | CC/C(=N\NC(=O)CNc1ccccn1)c1ccc(O)c(C)c1O [A-001, (E)-N′-(1-(2,4-dihydroxy-3-methylphenyl)propylidene)-2-(pyridin-2-ylamino)acetohydrazide] | – | – | – | –
2 | – | – | – | – | CC/C(=N\NC(=O)CNc1cccnc1)c1ccc(O)c(C)c1O [A-002] | 50 | 85 | 78 | 100
3 | – | – | – | – | CC/C(=N\NC(=O)C(CC)Nc1cccnc1)c1ccc(O)c(C)c1O (centres unmarked) [A-005] | 27 | 94 | 30 | 102
4 | – | – | – | – | CC/C(=N\NC(=O)[C@@H](C)Nc1cncc(F)c1)c1ccc(O)c(C)c1O [A-007R] | 8 | 98 | 15 | 108
5 | – | – | – | – | CC/C(=N\NC(=O)[C@@H](C)Nc1ccc(F)nc1)c1ccc(O)c(C)c1O [A-010] | 11 | 94 | 20 | 114
6 | – | – | – | – | CC/C(=N\NC(=O)[C@@H](C)Nc1cncc(Cl)c1)c1ccc(O)c(C)c1O [A-011] | 46 | 91 | 55 | 98
7 | – | – | – | – | CC/C(=N\NC(=O)[C@@H](C)Nc1ccc(Cl)nc1)c1ccc(O)c(C)c1O [A-012] | 19 | 87 | 23 | 103
8 | – | – | – | – | CC/C(=N\NC(=O)[C@@H](C)Nc1cncc(C(F)(F)F)c1)c1ccc(O)c(C)c1O [A-013] | 42 | 91 | 49 | 96
9 | ≥ 40 | ≥ 40 | ≥ 40 | ≥ 40 | CC/C(=N\NC(=O)[C@@H](C)Nc1cncnc1)c1ccc(O)c(C)c1O [A-017, (R,E)-N′-[1-(2,4-dihydroxy-3-methylphenyl)propylidene]-2-(pyrimidin-5-ylamino)propanehydrazide] | – | – | – | –
10 | ≥ 40 | ≥ 40 | – | ≥ 40 | CC/C(=N\NC(=O)[C@@H](C)Nc1ccc2cccnc2c1)c1ccc(O)c(C)c1O [A-019, (R,E)-N′-[1-(2,4-dihydroxy-3-methylphenyl)propylidene]-2-(quinolin-7-ylamino)propanehydrazide] | – | – | – | –
11 | – | ≥ 40 | – | ≥ 40 | CC/C(=N\NC(=O)NCc1cccnc1)c1ccc(O)c(C)c1O [B-001, (E)-2-(1-(2,4-dihydroxy-3-methylphenyl)propylidene)-N-(pyridin-3-ylmethyl)hydrazine-1-carboxamide] | – | – | – | –
